Experimental data reported in US20190225670A1, “COMPOUNDS AND METHODS FOR ACTIVATING TIE2 SIGNALING” (ASCLEPIX THERAPEUTICS, LLC, priority 2016, published 2019).
Entries after “also recorded” stand apart in the source; their conditions may differ.

Columns and labels:
Tie2 = experiment: Western blot of phospho-Tie2 (Y992) in MEC monolayers treated with AXT107 and angiopoietin; type: cell-based, human
Protocol: (§1) A confluent monolayer of human microvascular endothelial cells (HMEC) was serum starved with EBM-2 overnight. After a 90 min treatment with AXT107 at concentrations of 0, 10, 32, and 100 μM, the cells were treated for 15 min with 1 mM sodium orthovanadate. Next the cells were treated with Angiopoietin-2 (Ang-2) at 200 ng/mL for 15 min. Following cell lysis, the lysates were immunoblotted for pTie2 (Y992), pSTAT3 (Y705), and pAkt (S473).
To investigate the effects of the integrin inhibitor AXT107 on Tie2 signaling, confluent monolayers of microvascular endothelial cells (MECs) on fibronectin-coated dishes were treated with various concentrations of AXT107 followed by exposure to the Tie2 ligands Ang1 or Ang2.
(§2) For Ang1/2 signaling investigations, cell culture dishes (10 cm diameter) were coated with 5 μg/ml fibronectin (FN1; Sigma-Aldrich, St. Louis, Mo.) for two hours at 37° C. The FN1 solution was then removed by aspiration and 5×10^6 microvascular endothelial cells (MECs; Lonza, Walkersville, Md.) were plated in EGM-2MV media (Lonza) and cultured for forty-eight hours at 37° C. The cells were then serum starved for sixteen hours in serum-free EGM-2 base media (Lonza). AXT107 (0-100 μM, as indicated) was subsequently added to each culture and incubated for seventy-five minutes at 37° C. The cultures were then treated with 1 mM sodium vanadate (New England Biolabs, Ipswich, Mass.) for fifteen minutes to enhance the phospho-Tie2 signal followed by stimulation with 200 ng/ml angiopoietin (R&D Systems, Minneapolis, Minn.) for an additional fifteen minutes. The cells were then transferred to ice, washed twice with ice cold Dulbecco's phosphate-buffered saline (dPBS) containing Ca^2+ and Mg^2+, and collected by scraping in 500 μl of 1×Blue Loading Buffer (Cell Signaling, Danvers, Mass.). Lysate samples were then sonicated, boiled, and resolved by SDS-PAGE. Specific proteins were identified by Western blot, using the following primary antibodies: Cell Signaling—phospho-Tie2 (Y992) (Cat#: 4221), Tie2 (Cat#: 7403), phospho-Stat3 (Y705) (Cat#: 4113), Stat3 (Cat#: 4904), phospho-Akt (S473) (Cat#: 4058), Akt (Cat#: 9272), phospho-p44/42 MAPK (T202/Y204) (Cat#: 4370), p44/42 MAPK (Cat#: 4695); BD Transduction Laboratories—β1 integrin (Cat#: 610467); Millipore—α5 integrin (Cat#: AB1928) and detected with HRP-conjugated goat anti-rabbit and sheep anti-mouse secondary antibodies (GE healthcare).

STAT3 = experiment: Western blot of phospho-STAT3 (Y705) in MEC lysates treated with Ang2 and AXT107; type: cell-based, human
Protocol: as §1
(§3) For Ang1/2 signaling investigations, cell culture dishes (10 cm diameter) were coated with 5 μg/ml fibronectin (FN1; Sigma-Aldrich, St. Louis, Mo.) for two hours at 37° C. The FN1 solution was then removed by aspiration and 5×10^6 microvascular endothelial cells (MECs; Lonza, Walkersville, Md.) were plated in EGM-2MV media (Lonza) and cultured for forty-eight hours at 37° C. […] Specific proteins were identified by Western blot, using the following primary antibodies: Cell Signaling—phospho-Tie2 (Y992) (Cat#: 4221), Tie2 (Cat#: 7403), phospho-Stat3 (Y705) (Cat#: 4113), Stat3 (Cat#: 4904), phospho-Akt (S473) (Cat#: 4058), Akt (Cat#: 9272), phospho-p44/42 MAPK (T202/Y204) (Cat#: 4370), p44/42 MAPK (Cat#: 4695); BD Transduction Laboratories—β1 integrin (Cat#: 610467); Millipore—α5 integrin (Cat#: AB1928) and detected with HRP-conjugated goat anti-rabbit and sheep anti-mouse secondary antibodies (GE healthcare).

Erk1/2 = experiment: Western blot of phospho-Erk1/2 in MEC lysates treated with Ang2 and AXT107; type: cell-based, human; conditions: AXT107 and Ang2, all tested conditions
Protocol: as §2, with “The cells were then transferred to ice, washed twice with ice cold Dulbecco's phosphate-buffered saline (dPBS) containing Ca^2+ and Mg^2+, and collected by scraping in 500 μl of 1×Blue Loading Buffer (Cell Signaling, Danvers, Mass.). Lysate samples were then sonicated, boiled, and resolved by SDS-PAGE.” left out

β1 integrin subunit = target: T1, β1 integrin subunit (Homo sapiens, UniProt P05556); experiment: Triton X-100 fractionation of MEC lysates, β1 integrin; type: cell-based
T1 construct: host or cells: human dermal microvascular endothelial cells (MEC)
T1 sequence (P05556 21-798): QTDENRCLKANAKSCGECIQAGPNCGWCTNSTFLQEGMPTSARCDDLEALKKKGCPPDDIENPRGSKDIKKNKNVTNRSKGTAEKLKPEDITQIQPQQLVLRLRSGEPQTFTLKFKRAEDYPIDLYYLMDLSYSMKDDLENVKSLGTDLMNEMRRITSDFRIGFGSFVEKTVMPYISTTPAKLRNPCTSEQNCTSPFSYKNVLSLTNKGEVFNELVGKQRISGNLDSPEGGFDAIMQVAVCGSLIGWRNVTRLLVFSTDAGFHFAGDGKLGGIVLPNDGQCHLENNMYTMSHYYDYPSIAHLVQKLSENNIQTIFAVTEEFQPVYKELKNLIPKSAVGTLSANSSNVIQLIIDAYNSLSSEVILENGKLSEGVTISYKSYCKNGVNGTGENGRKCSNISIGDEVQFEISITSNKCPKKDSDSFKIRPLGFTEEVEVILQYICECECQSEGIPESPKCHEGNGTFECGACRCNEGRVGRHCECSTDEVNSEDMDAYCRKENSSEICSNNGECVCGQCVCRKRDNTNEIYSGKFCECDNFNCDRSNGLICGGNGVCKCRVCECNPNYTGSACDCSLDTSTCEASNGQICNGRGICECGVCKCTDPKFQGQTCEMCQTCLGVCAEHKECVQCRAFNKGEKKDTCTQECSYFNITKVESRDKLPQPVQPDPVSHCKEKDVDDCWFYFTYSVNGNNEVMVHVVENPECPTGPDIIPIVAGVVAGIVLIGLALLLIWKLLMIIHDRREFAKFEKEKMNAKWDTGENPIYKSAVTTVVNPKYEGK
Excerpt: Since β1 integrin is the only known β subunit to heterodimerize with the α5 integrin subunit, it unlikely that the as subunit, that was observed here in the insoluble fractions, originated from a heterodimeric integrin pair other than α5β1. Unfortunately, high background impaired the visualization of α5 integrin alone by immunofluorescence. Given the unexpected discovery that AXT107 dissociates the integrin heterodimer, this discovery was confirmed in several independent assays. […] Thus, interactions between Tie2 and heterodimerized α5β1 integrin appear to retain Tie2 at the EC-ECM interface.
The isolation of Triton X-100 soluble and insoluble fractions was performed using modifications to previously-described procedures (see, e.g., Lampugnani et al., J Cell Biol. 1995; 129(1):203-217). FN1-coated six-well plates were seeded with 2.5×10^6 cells and cultured for forty-eight hours, as described above. The cultures were then serum starved for ninety minutes in EBM-2 media, treated with 100 μM AXT107 or DMSO vehicle, and fifteen minutes with 1 mM sodium vanadate. The cells were then stimulated with either 100 ng/ml VEGFA, 400 ng/ml Ang2, or PBS for fifteen minutes. The plates were then transferred to ice and washed twice with cold dPBS containing Ca^2+ and Mg^2+ and twice with EBM-2 media. […] Samples were analyzed by western blot as described above. […]

[1] = tested on: myosin light chain 2 (MLC2); experiment: Western blot of pMLC2 in MECs treated with Ang2 and AXT107; type: cell-based, human; conditions: AXT107 and 200 ng/ml Ang2
Protocol: Phosphorylation of Tie2 is known to stimulate the Rap1-GTPase pathway, leading to a reduction in the phosphorylation of the downstream motor protein myosin light chain 2 (MLC2) associated with actin rearrangement.
as §3, with “forty-eight hours at 37° C. The cells were then serum starved for sixteen hours in serum-free EGM-2 base media (Lonza). AXT107 (0-100 μM, as indicated) was subsequently added to each culture and incubated for seventy-five minutes at 37°” for “forty-eight hours at 37°”

[2] = Self-assembly of peptide in media; type: physicochemical; conditions: cell culture media

With LRRFSTAPFAFIDINDVINF [AXT107] the Tie2 phosphorylation (Tie2; AXT107 0-100 μM, then 200 ng/ml Ang2 15 min) was “increased phosphorylation; also recorded: significant, dose-dependent increase”, the “Ang1 activity (Tie2 phosphorylation)” value (Tie2; AXT107 followed by Ang1, data not shown) was “did not significantly influence” and the “total protein levels of Tie2” value (Tie2; AXT107 with angiopoietin) was “remained unchanged; also recorded: does not influence total levels of Tie2”. For the same sequence, the “phosphorylation by peptide alone” value (Tie2; in absence of either ligand) was “not induced”, the STAT3 phosphorylation (STAT3) was “increased phosphorylation” and the Erk1/2 phosphorylation (Erk1/2) was “remained constant”. For the same sequence, the “β1 integrin subunit in insoluble fraction” value (β1 integrin subunit; 100 μM AXT107, long exposure times, high antibody concentrations) was “never observed in the insoluble fraction”, the “interactions of immunoprecipitated α5 integrin with β1” value (β1 integrin subunit; Triton X-100 fractionated lysates after AXT107 treatment, data not shown) was “only found in the soluble fractions” and the “phosphorylation of MLC2” value [1] was “reduced in a dose-dependent manner”. For the same sequence, the “self-assembly when added to media” value [2] was “self-assemble into peptide complexes”.
